One block for each molecule: values may come before it.
Assays:
diabetic rats = test: Assay for inhibitory effects on blood glucose level increase in rats (liquid meal tolerance test); type: in vivo, Wistar rats; conditions: liquid meal load, mean±S.E.; for Plasma glucose concentration 0.5 h: 0.5 hour after administration; for Plasma glucose concentration 1 h: 1 hour after administration; for Plasma glucose concentration 0 h: pretreatment (0 h)
Method: Assay for Inhibitory Effects on Blood Glucose Level Increase in Rats
1) Preparation of Diabetic Rat Model
Male Wistar rats (Japan Charles River), aged 8 weeks old, were injected nicotinamide (230 mg/kg) intraperitoneally. Fifteen minutes after injection, they were injected streptozotocin (85 mg/kg) intravenously from tail vain under anesthesia with ether. After a week, rats were fasted overnight and then glucose tolerance test (2 g/kg) was done.
2) Liquid Meal Tolerance Test
After overnight fasted, the diabetic rats were orally administered a test compound (0.5, 2 mg/kg), which was dissolved in distilled water, in the drug-treating group, or distilled water alone in a control group. Immediately after the compound administration, 4.5 kcal/body of liquid meal (No. 038, Control diet, assorted with dextrin and maltose; Oriental Yeast Co., Ltd.) was loaded orally. The blood was collected from tail artery immediately before and after administration with the time course, and treated with heparin immediately. The blood was centrifuged, and the plasma was collected to quantify the plasma glucose concentration by glucose oxidase method. The values in the Table are presented as the mean±S.E.

human SGLT1 = target: T1, human SGLT1 (Homo sapiens, UniProt P13866); test: Assay for inhibitory effects on human SGLT1 activity (uptake of methyl-α-D-glucopyranoside in CS1-5-11D cells); type: cell-based; conditions: inhibition of 14C α-MG uptake, CHO-K1 derived CS1-5-11D cells stably expressing human SGLT1, 1 mM α-MG, 37° C., 1 hour
T1 construct: expressed in transfected cells
T1 sequence (P13866 1-664): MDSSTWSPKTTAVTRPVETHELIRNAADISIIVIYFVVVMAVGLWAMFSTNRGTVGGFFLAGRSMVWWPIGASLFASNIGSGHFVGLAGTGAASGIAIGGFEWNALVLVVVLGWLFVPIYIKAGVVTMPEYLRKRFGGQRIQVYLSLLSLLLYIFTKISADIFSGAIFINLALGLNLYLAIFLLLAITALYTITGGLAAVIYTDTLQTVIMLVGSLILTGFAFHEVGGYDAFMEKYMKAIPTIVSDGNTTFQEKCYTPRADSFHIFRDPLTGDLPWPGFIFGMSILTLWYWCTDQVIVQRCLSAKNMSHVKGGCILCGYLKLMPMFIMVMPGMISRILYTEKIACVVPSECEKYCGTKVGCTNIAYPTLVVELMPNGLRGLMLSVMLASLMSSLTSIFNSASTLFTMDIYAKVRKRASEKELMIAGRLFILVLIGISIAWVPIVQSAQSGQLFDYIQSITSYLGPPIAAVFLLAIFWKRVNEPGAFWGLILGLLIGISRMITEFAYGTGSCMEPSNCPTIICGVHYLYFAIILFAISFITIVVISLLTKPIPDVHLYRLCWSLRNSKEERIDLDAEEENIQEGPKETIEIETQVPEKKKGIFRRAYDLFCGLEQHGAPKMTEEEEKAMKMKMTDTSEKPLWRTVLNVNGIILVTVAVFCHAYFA
Method: Assay for Inhibitory Effects on Human SGLT1 Activity
1) Cloning and Construction of the Vector Expressing Human SGLT1
(§1) The cDNA library was prepared for PCR amplification by reverse transcription from total RNA deprived from human small intestine (Ori gene) using oligo-dT as a primer. Using this cDNA library as a template, the DNA fragment coding 1 to 2005 bp of human SGLT1 (ACCESSION: M24847), which was reported by Hediger et al., was amplified by PCR method and inserted into the multi-cloning site of pcDNA3.1(−) (Invitrogen). The DNA sequence inserted was perfectly matched to the previously reported sequence.
2) Establishment of Cell Line Stably Expressing Human SGLT1
(§2) The expression vector of human SGLT1 was digested by Sca I into a linear DNA. The linear DNA was transfected into CHO-K1 cells by means of lipofection (Effectene Transfection Reagent: QIAGEN). Neomycin resistant cell lines were selected by culture in the medium containing G418 (1 mg/mL, LIFE TECHNOLOGIES), and then the activity against the uptake of methyl-α-D-glucopyranoside was measured by the method described below. […] CS1-5-11D cells were cultured in the presence of G418 at 200 μg/mL. […]
CS1-5-11D cells were seeded into a 96-well culture plate at a density of 3×10^4 cells/well and cultured for 2 days, and were used in the uptake assay. […] Radioactivity was measured by means of micro-scintillation counter TopCount (Packard). […]

human SGLT2 = target: T2, human SGLT2 (Homo sapiens, UniProt P31639); test: Assay for inhibitory effects on human SGLT2 activity (uptake of methyl-α-D-glucopyranoside in CS2-5E cells); type: cell-based; conditions: inhibition of 14C α-MG uptake, CHO-K1 derived CS2-5E cells stably expressing human SGLT2, 1 mM α-MG, 37° C., 1 hour
T2 construct: expressed in transfected cells
T2 sequence (P31639 1-672): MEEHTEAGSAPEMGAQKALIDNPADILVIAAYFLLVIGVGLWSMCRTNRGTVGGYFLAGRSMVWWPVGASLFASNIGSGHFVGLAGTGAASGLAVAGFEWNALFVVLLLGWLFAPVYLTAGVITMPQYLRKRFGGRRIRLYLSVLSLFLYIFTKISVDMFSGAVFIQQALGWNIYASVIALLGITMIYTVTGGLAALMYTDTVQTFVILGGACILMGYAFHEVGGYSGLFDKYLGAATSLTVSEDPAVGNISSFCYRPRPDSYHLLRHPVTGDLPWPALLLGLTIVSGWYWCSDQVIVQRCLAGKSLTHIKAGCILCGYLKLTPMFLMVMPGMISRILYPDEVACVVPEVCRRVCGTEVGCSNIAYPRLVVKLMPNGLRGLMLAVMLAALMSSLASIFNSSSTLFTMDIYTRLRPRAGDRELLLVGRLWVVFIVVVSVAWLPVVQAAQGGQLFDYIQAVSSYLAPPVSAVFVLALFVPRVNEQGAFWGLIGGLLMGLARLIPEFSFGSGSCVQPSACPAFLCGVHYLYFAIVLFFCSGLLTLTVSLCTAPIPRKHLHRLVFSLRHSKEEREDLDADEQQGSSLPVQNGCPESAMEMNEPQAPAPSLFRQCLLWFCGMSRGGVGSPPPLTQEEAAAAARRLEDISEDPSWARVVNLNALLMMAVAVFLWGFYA
Method: Assay for Inhibitory Effects on Human SGLT2 Activity
1) Cloning and Construction of the Vector Expressing Human SGLT2
as §1, with “human kidney” for “human small intestine”, “coding 2” for “coding 1”, “to 2039” for “to 2005”, “human SGLT2” for “human SGLT1”, “(ACCESSION: M95549, M95299),” for “(ACCESSION: M24847),”, “by R. G. Wells” for “by Hediger”
2) Establishment of Cell Line Stably Expressing Human SGLT2
as §2, with “SGLT2” for “SGLT1”, “CS2-5E” for “CS1-5-11D”
CS2-5E cells were seeded into a 96-well culture plate at a density of 3×10^4 cells/well and cultured for 2 days, and were used in the uptake assay. […] Radioactivity was measured by means of micro-scintillation counter TopCount (Packard). […]

SMILES: OCCn1nc(O[C@@H]2O[C@H](CO)[C@@H](O)[C@H](O)[C@H]2O)c2c(CCc3ccc(O)cc3)cccc21 [Example 59, 3-(β-D-Glucopyranosyloxy)-1-(2-hydroxyethyl)-4-[2-(4-hydroxyphenyl)ethyl]-1H-indazole]
Plasma glucose concentration 0.5 h (diabetic rats; 0.5 mg/kg orally): 173 ± 7 mg/dL | Plasma glucose concentration 1 h (diabetic rats; 0.5 mg/kg orally): 186 ± 6 mg/dL | Plasma glucose concentration 0 h (diabetic rats; 0.5 mg/kg orally): 109 ± 2 mg/dL | Plasma glucose concentration 0.5 h (diabetic rats; 2 mg/kg orally): 141 ± 3 mg/dL | Plasma glucose concentration 1 h (diabetic rats; 2 mg/kg orally): 153 ± 4 mg/dL | Plasma glucose concentration 0 h (diabetic rats; 2 mg/kg orally): 115 ± 3 mg/dL

IC50 (human SGLT1): 100 nM
SMILES: NC(=O)Cn1nc(O[C@@H]2O[C@H](CO)[C@@H](O)[C@H](O)[C@H]2O)c2c(CCc3ccc(O)cc3)ccnc21 [Example 12, 1-Carbamoylmethyl-3-(β-D-glucopyranosyloxy)-4-[2-(4-hydroxyphenyl)ethyl]-1H-pyrazolo[3,4-b]pyridine]

IC50 (human SGLT1): 12 nM
SMILES: Cc1cc(CCc2cccc3[nH]nc(O[C@@H]4O[C@H](CO)[C@@H](O)[C@H](O)[C@H]4O)c23)ccc1O [Example 5, 3-(β-D-Glucopyranosyloxy)-4-[2-(4-hydroxy-3-methylphenyl)-ethyl]-1H-indazole]

IC50 (human SGLT2): 68 nM
SMILES: OCCn1nc(O[C@@H]2O[C@H](CO)[C@@H](O)[C@H](O)[C@H]2O)c2c(CCc3ccccc3)ccnc21 [Example 17, 3-(β-D-Glucopyranosyloxy)-1-(2-hydroxyethyl)-4-(2-phenylethyl)-1H-pyrazolo[3,4-b]pyridine]

IC50 (human SGLT2): 90 nM
SMILES: OC[C@H]1O[C@@H](Oc2n[nH]c3cccc(CCc4ccccc4)c23)[C@H](O)[C@@H](O)[C@@H]1O [Example 4, 3-(β-D-Glucopyranosyloxy)-4-(2-phenylethyl)-1H-indazole]
